Target: T1, CD11b and CD14 (Homo sapiens, UniProt P08571)
T1 construct: endogenous in cells; host or cells: human monocytes in heparinised whole blood (healthy donors and patients)
T1 sequence (P08571 20-345 limits assumed): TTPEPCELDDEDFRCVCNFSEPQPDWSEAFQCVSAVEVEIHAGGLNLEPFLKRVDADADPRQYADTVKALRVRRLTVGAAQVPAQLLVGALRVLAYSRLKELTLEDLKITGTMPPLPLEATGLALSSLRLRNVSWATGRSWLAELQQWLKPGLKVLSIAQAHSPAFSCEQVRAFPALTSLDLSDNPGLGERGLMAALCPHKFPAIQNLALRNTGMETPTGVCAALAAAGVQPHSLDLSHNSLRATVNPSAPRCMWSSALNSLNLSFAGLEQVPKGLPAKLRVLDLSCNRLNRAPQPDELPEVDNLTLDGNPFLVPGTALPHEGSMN
Assay: FRET flow cytometry: co-assembly of CD11b and CD14 on monocytes
Type: cell-based
Conditions: human monocytes in whole blood, stimulation with the substance alone, 37° C. 15 minutes
Procedure: Aliquots […] of whole blood were incubated with the following stimulatory compounds at 37° C. for 15 minutes: LPS of Salmonella minnesota (0.1-10 nM, Mw 10 kDa), ceramide (primarily stearic acid and nervonic acid) and sulfogalactosyl ceramide (SG-cer, […]), both of which tested LPS free in the LAL assay (Cer, 1 nM-5.5 mM), lysophosphatidyl choline (lyso-PC, 10 mM), phorbol-12-myristate-13-acetate (PMA, 1 mM), N-formyl-L-methionyl-L-leucyl-L-phenyl alamine (fMLP, 1 mM), PE, PC, PI and PS liposomes (10 mm) which had been prepared as described above. All reagents were obtained from Sigma. In addition, the cells were stimulated with HPS70 (7 nM), dHSP70 (7 nM) and SG-cer+dHSP70 (40 nM+7 nM). After incubation, the cells were washed with cold PBS containing 0.1% of NaN3. The synthetic LPS antagonist lipid IVa (“compound-406”, 1-400 ng/ml) and lipid A derived from E. coli (1-100 ng/ml) were made available by courtesy of Dr. S. Kusumoto. The cells were pre-incubated with the LPS antagonist at 37° C. for 15 minutes and then stimulated with LPS at the same temperature (without washing).
Whole blood cells which had been stimulated or washed ex vivo […] were incubated on ice for 15 minutes with saturation concentrations of monoclonal fluorochrom-conjugated or biotinylated antibodies. The monoclonal antibodies CD11a (clone 25.3.1), CD16a (clone 3G8). CD18 (clone 7E4), CD14 (clone RMO52), CD33 (clone My9-RD1). CD81 (clone Js64) were obtained as R-phyco-erythrine (R-PE) conjugates and CD25 (clone B1.49.9) in biotinylated form from Coulter/Immunotech (Krefeld, Germany). CD11b (clone d12), CD11c (clone S-HCL-3), CD36 (clone CB38), CD47 (clone B6H12), CD81 (clone JS-81) and (Cd55 (clone IA10) in biotinylated form and Streptavidin-R-PE were purchased from Becton/Dickinson/Pharningen (Heidelberg, Germany) CD18 (clone IB4) in biontinylated form and CD40 (clone EA-5) as R-PE conjugate were obtained from Alexis (Grünberg, Germany) and CD14 (clones ×8 and Uchml) and CD3 (clone Cris-7) in biotinylated form and Streptavidin-Cy5 (Sa-Cy5) from Dianova (Hamburg, Germany), CD32 (clone C1KM5) and CD64 (clone 10.1) were obtained as R-PE conjugates from Caltag (Burlingame, U.S.A.) and CD91 (clone 8G1) in biotinylated form from Proen (Heidelberg, Germany). A monoclonal anti-TLRA antibody (clone HTA125) was kindly provided by Dr. Kensuke. Since no energy transfer between the antibodies directed against the CD14/CD11a and CD14/CD11c pairs was detectable either on resting or on stimulated cells, these antibody combinations were not characterised further.
Lysis of erythrocytes and washing were carried out as described (Rothe et al., Thromb. Vasc. Biol. 16 (1996), 1437-1447). After the last washing step, the samples were divided and part of each sample incubated with a saturating amount of SA-Cy5 on ice for 15 minutes and washed before measuring.
For energy transfer experiments, […] aliquots of whole blood were treated with cholesterol/methyl cyclodextrine (C/C) (100 mg/ml/4.6 mg/ml) or 2-hydroxypropyl-β-cyclodextrine (0.15 mg/ml) at 37° C. for 30 minutes and then stimulated further with LPS (4 nM) or ceramide (40 nM) as described above. The energy transfer between CD14 and CD11b was measured.
A “FACSCalibur” flow cytometer (Becton Dickinson) equipped with an air-cooled 15 mW argon laser (excitation wavelength 488 nm), a diode laser (excitation wavelength […]) and standard filters [channel 1 (FITC): 530/30 nm band pass filter; channel 2 (R-PE being used as donor dye); 585/47 nm band pass filter; channel 3 (PerCP): pass having a length of >670 nm; and channel 4 (Cy5being used as recipient dye): 661/16 nm bad pass filter] was used. The Cellquest software (Becton Dickinson) was used for the measurements. […] Measurement was conducted without compensation. 50,000 leukocytes were required in the “list” modus, forward scattering (FSC) being used as a trigger signal. […]

Substance	co-assembly of CD11b and CD14 (energy transfer between monoclonal antibodies)
lipid A	induced the co-assembly of CD11b and CD14
lyso-phosphatidyl choline [lysoPC]	Only lipoteichoic acid, PE and PI induced co-assembly
phosphatidyl choline [PC]	Only lipoteichoic acid, PE and PI induced co-assembly
phosphatidyl ethanol amine [PE]	induced co-assembly between CD11b and CD14
phosphatidyl inositol [PI]	induced co-assembly between CD11b and CD14
phosphatidyl serine [PS]	Only lipoteichoic acid, PE and PI induced co-assembly
sulfogalactosyl ceramide [SG-cer]	Only lipoteichoic acid, PE and PI induced co-assembly

— patent publication US20030165919A1, “Method for the analysis of exogenic and endogenic cell activiation based on measuring the aggregation of receptors” (priority 2000, published 2003)
